Assay results: PubChem BioAssay (NCI)
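In this assay, cells in 96-well plates receive the compound at five concentrations for 48 hours. Endpoints are linearly interpolated between the surrounding concentrations. GI50 = concentration required for 50% inhibition of growth. TGI: total growth inhibition.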

Tests used:
Test in all cases: growth of human tumour cells (NCI), 48 h
786-0 renal = tested on: 786-0 renal
A498 renal = tested on: A498 renal
A549 NSCLC = tested on: A549 NSCLC
ACHN renal = tested on: ACHN renal
BT-549 breast = tested on: BT-549 breast
CAKI-1 renal = tested on: CAKI-1 renal
COLO 205 colon = tested on: COLO 205 colon
DU-145 prostate = tested on: DU-145 prostate
HCC-2998 colon = tested on: HCC-2998 colon
HCT-116 colon = tested on: HCT-116 colon
HCT-15 colon = tested on: HCT-15 colon
HL-60(TB) leukemia = tested on: HL-60(TB) leukemia
HOP-62 NSCLC = tested on: HOP-62 NSCLC
HOP-92 NSCLC = tested on: HOP-92 NSCLC
HS 578T breast = tested on: HS 578T breast
HT29 colon = tested on: HT29 colon
IGROV1 ovarian = tested on: IGROV1 ovarian
K-562 leukemia = tested on: K-562 leukemia
KM12 colon = tested on: KM12 colon
LOX IMVI melanoma = tested on: LOX IMVI melanoma
M14 melanoma = tested on: M14 melanoma
MALME-3M melanoma = tested on: MALME-3M melanoma
MCF7 breast = tested on: MCF7 breast
MDA-MB-231 breast = tested on: MDA-MB-231 breast
MDA-MB-435 = tested on: MDA-MB-435
MOLT-4 leukemia = tested on: MOLT-4 leukemia
NCI-H226 lung = tested on: NCI-H226 lung
NCI-H23 lung = tested on: NCI-H23 lung
NCI-H460 lung = tested on: NCI-H460 lung
NCI-H522 lung = tested on: NCI-H522 lung
NCI/ADR-RES ovarian = tested on: NCI/ADR-RES ovarian
OVCAR-3 ovarian = tested on: OVCAR-3 ovarian
OVCAR-4 ovarian = tested on: OVCAR-4 ovarian
OVCAR-5 ovarian = tested on: OVCAR-5 ovarian
OVCAR-8 ovarian = tested on: OVCAR-8 ovarian
PC-3 prostate = tested on: PC-3 prostate
RPMI-8226 leukemia = tested on: RPMI-8226 leukemia
RXF 393 renal = tested on: RXF 393 renal
SF-268 CNS = tested on: SF-268 CNS
SF-295 CNS = tested on: SF-295 CNS
SF-539 CNS = tested on: SF-539 CNS
SK-MEL-2 melanoma = tested on: SK-MEL-2 melanoma
SK-MEL-28 melanoma = tested on: SK-MEL-28 melanoma
SK-MEL-5 melanoma = tested on: SK-MEL-5 melanoma
SK-OV-3 ovarian = tested on: SK-OV-3 ovarian
SN12C renal = tested on: SN12C renal
SNB-19 CNS = tested on: SNB-19 CNS
SNB-75 CNS = tested on: SNB-75 CNS
SR leukemia = tested on: SR leukemia
SW-620 colon = tested on: SW-620 colon
T-47D breast = tested on: T-47D breast
TK-10 renal = tested on: TK-10 renal
U251 CNS = tested on: U251 CNS
UACC-257 melanoma = tested on: UACC-257 melanoma
UACC-62 melanoma = tested on: UACC-62 melanoma
UO-31 renal = tested on: UO-31 renal

CC(C)C[C@H](NC(=O)Cn1ccc(Nc2ccccc2)cc1=O)B(O)O was tested, and the GI50 (786-0 renal) was 5.55 µM, the TGI (786-0 renal) was greater than 100 µM and the GI50 (A498 renal) was 1.07 µM. For the same compound, the TGI (A498 renal) was 6.78 µM, the GI50 (A549 NSCLC) was 8.34 µM and the TGI (A549 NSCLC) was greater than 100 µM. For the same compound, the GI50 (ACHN renal) was 3.04 µM, the TGI (ACHN renal) was greater than 100 µM and the GI50 (BT-549 breast) was 1.19 µM. For the same compound, the TGI (BT-549 breast) was 11.7 µM, the GI50 (CAKI-1 renal) was 4.02 µM and the TGI (CAKI-1 renal) was 60.4 µM. It also gave a GI50 (COLO 205 colon) of 8.25 µM, a TGI (COLO 205 colon) greater than 100 µM and a GI50 (DU-145 prostate) of 10.7 µM. It also gave a TGI (DU-145 prostate) greater than 100 µM, a GI50 (HCC-2998 colon) of 2.02 µM and a TGI (HCC-2998 colon) of 4.76 µM. The GI50 (HCT-116 colon) was 0.852 µM, the TGI (HCT-116 colon) was 5.02 µM and the GI50 (HCT-15 colon) was 8.66 µM. The TGI (HCT-15 colon) was greater than 100 µM, the GI50 (HL-60(TB) leukemia) was 3.32 µM and the TGI (HL-60(TB) leukemia) was 72.6 µM. The GI50 (HOP-62 NSCLC) was 6.23 µM, the TGI (HOP-62 NSCLC) was 40.9 µM and the GI50 (HOP-92 NSCLC) was 2.49 µM. For the same compound, the TGI (HOP-92 NSCLC) was 8.23 µM, the GI50 (HS 578T breast) was 1.86 µM and the TGI (HS 578T breast) was 7.16 µM. For the same compound, the GI50 (HT29 colon) was 1.06 µM, the TGI (HT29 colon) was 13.2 µM and the GI50 (IGROV1 ovarian) was 6.27 µM. For the same compound, the TGI (IGROV1 ovarian) was greater than 100 µM, the GI50 (K-562 leukemia) was 3.67 µM and the TGI (K-562 leukemia) was greater than 100 µM. It also gave a GI50 (KM12 colon) of 3.08 µM, a TGI (KM12 colon) of 12.4 µM and a GI50 (LOX IMVI melanoma) of 0.645 µM. For the same compound, the TGI (LOX IMVI melanoma) was 2.27 µM, the GI50 (M14 melanoma) was 1.74 µM and the TGI (M14 melanoma) was 13.7 µM. The GI50 (MALME-3M melanoma) was 2.08 µM, the TGI (MALME-3M melanoma) was 8.77 µM and the GI50 (MCF7 breast) was 0.427 µM. For the same compound, the TGI (MCF7 breast) was greater than 100 µM, the GI50 (MDA-MB-231 breast) was 3.09 µM and the TGI (MDA-MB-231 breast) was 15.2 µM. For the same compound, the GI50 (MDA-MB-435) was 0.593 µM, the TGI (MDA-MB-435) was 2.29 µM and the GI50 (MOLT-4 leukemia) was 0.468 µM. It also gave a TGI (MOLT-4 leukemia) of 11.7 µM, a GI50 (NCI-H226 lung) of 0.352 µM and a TGI (NCI-H226 lung) of 1.47 µM. For the same compound, the GI50 (NCI-H23 lung) was 3.45 µM, the TGI (NCI-H23 lung) was greater than 100 µM and the GI50 (NCI-H460 lung) was 8.41 µM. For the same compound, the TGI (NCI-H460 lung) was 42.5 µM, the GI50 (NCI-H522 lung) was 0.932 µM and the TGI (NCI-H522 lung) was 6.44 µM. The GI50 (NCI/ADR-RES ovarian) was 65.6 µM, the TGI (NCI/ADR-RES ovarian) was greater than 100 µM and the GI50 (OVCAR-3 ovarian) was 0.512 µM. For the same compound, the TGI (OVCAR-3 ovarian) was 2.78 µM, the GI50 (OVCAR-4 ovarian) was 5.68 µM and the TGI (OVCAR-4 ovarian) was greater than 100 µM. The GI50 (OVCAR-5 ovarian) was 6.24 µM, the TGI (OVCAR-5 ovarian) was 90 µM and the GI50 (OVCAR-8 ovarian) was 5.47 µM. It also gave a TGI (OVCAR-8 ovarian) greater than 100 µM, a GI50 (PC-3 prostate) of 5.06 µM and a TGI (PC-3 prostate) of 36 µM. The GI50 (RPMI-8226 leukemia) was 0.345 µM, the TGI (RPMI-8226 leukemia) was 0.949 µM and the GI50 (RXF 393 renal) was 1.81 µM. For the same compound, the TGI (RXF 393 renal) was 4.78 µM, the GI50 (SF-268 CNS) was 2.88 µM and the TGI (SF-268 CNS) was 18.6 µM. The GI50 (SF-295 CNS) was 3.75 µM, the TGI (SF-295 CNS) was 40.1 µM and the GI50 (SF-539 CNS) was 0.781 µM. It also gave a TGI (SF-539 CNS) of 5.81 µM, a GI50 (SK-MEL-2 melanoma) of 1.81 µM and a TGI (SK-MEL-2 melanoma) of 21.3 µM. For the same compound, the GI50 (SK-MEL-28 melanoma) was 0.665 µM, the TGI (SK-MEL-28 melanoma) was 4.49 µM and the GI50 (SK-MEL-5 melanoma) was 0.62 µM. It also gave a TGI (SK-MEL-5 melanoma) of 2.88 µM, a GI50 (SK-OV-3 ovarian) of 11.5 µM and a TGI (SK-OV-3 ovarian) greater than 100 µM. It also gave a GI50 (SN12C renal) of 5.17 µM, a TGI (SN12C renal) of 28 µM and a GI50 (SNB-19 CNS) of 16.6 µM. For the same compound, the TGI (SNB-19 CNS) was greater than 100 µM, the GI50 (SNB-75 CNS) was 4.54 µM and the TGI (SNB-75 CNS) was 25.3 µM. For the same compound, the GI50 (SR leukemia) was 0.398 µM, the TGI (SR leukemia) was greater than 100 µM and the GI50 (SW-620 colon) was 2 µM. The TGI (SW-620 colon) was 23.9 µM, the GI50 (T-47D breast) was 1.01 µM and the TGI (T-47D breast) was 3.38 µM. For the same compound, the GI50 (TK-10 renal) was 3.28 µM, the TGI (TK-10 renal) was 25.3 µM and the GI50 (U251 CNS) was 5.04 µM. The TGI (U251 CNS) was greater than 100 µM, the GI50 (UACC-257 melanoma) was 1.3 µM and the TGI (UACC-257 melanoma) was 7.68 µM. For the same compound, the GI50 (UACC-62 melanoma) was 2.44 µM, the TGI (UACC-62 melanoma) was 18.1 µM and the GI50 (UO-31 renal) was 5.59 µM. It also gave a TGI (UO-31 renal) of 39.6 µM.
